For one assay, the target named is T1, EcoFiu (Escherichia coli, UniProt P75780, A694C).
T1 construct: expressed in transfected cells; host or cells: E. coli OKN3/OKN13/OKN359/OKN1359 carrying a pITS23 derivative
The assay is described as follows: biochemical. It counts as binding. As to the method:
(§1) Fluorescence modifications. For modifications with maleimide fluorophores, we inoculated E. coli strains OKN3, OKN13, OKN359 or OKN1359, harboring plasmids that encoded a Cys mutant LGP, from frozen stocks into LB, grew them overnight and sub-cultured at 1% into iron-deficient MOPS minimal media, with shaking (200 rpm) at 37° C. for 10-12 h, until late exponential phase. After collecting the cells by centrifugation at 7500×g for 15 min, and washing with 50 mM NaHPO4, pH 6.7, we labeled the Cys-mutant LGP with 5 μM FM in 50 mM NaHPO4, pH 6.7 for 15 min at 37° C. FM. We terminated the labeling reactions with 100 μM β-mercaptoethanol. After collecting the fluoresceinated cells by centrifugation at 7500×g for 15 min, and washing with 50 mM NaHPO4, pH 6.7, we re-suspended them in PBS plus 0.2% glucose. We either immediately used the labeled cells in spectroscopic experiments, or rested them on ice (up to 24 h), or added glycerol to 15% and stored them (indefinitely) as 1 mL aliquots at −70° C. In the latter case, after thawing the labeled cells we pelleted them by centrifugation in a microfuge, washed them once with and re-suspended them in PBS containing 0.2% glucose. Lastly, for evaluation of protein expression or the extent of FM-labeling we solubilized aliquots of the cell suspensions with sample buffer, and subjected them to SDS-PAGE. After electrophoresis, we first visualized the fluorescence labeling on a Typhoon 8600 Biomolecular Scanner (GE/Amersham), and then stained the gels with Coomassie blue R (153).
(§2) Fluorescence spectroscopic binding determinations. We observed fluorophore-labeled cells in an SLM AMINCO 8100 fluorescence spectrometer, upgraded with an OLIS operating system and software (OLIS SpectralWorks, OLIS Inc., Bogart, GA), to control its shutters, polarizers and data collection. We also utilized an OLIS Clarity fluorescence spectrometer for fluorescence assays. For binding determinations we deposited 2.5×10^7 labeled cells in a quartz cuvette (final volume, 2 mL) with stirring at 37° C., measured the initial fluorescence (F0), and then added increasing concentrations of an iron complex while monitoring the quenching of fluorescence emissions (F) at 520 nm. We performed each measurement in triplicate and calculated the mean value of F/F0 at each ligand concentration. We plotted 1−F/F0 vs [ligand] and analyzed the data by the 1-site binding model of Grafit 6.0.12 (Erithacus Ltd. West Sussex, UK), that fits data to a single site saturation curve, where the amount of ligand bound is plotted as a function of the amount free:
These plots yielded KD values for each of the receptor-ligand interactions, with associated standard errors.
Table 1 lists KD values from analysis of fluorescence quenching with ferric or apo (parenthetic values) siderophores or porphyrins. For each determination, we measured the extent of fluorescence quenching of an FLGP, when exposed to sequentially increasing concentrations of the listed metal complexes, as plotted in FIGS. 2-4. We performed each experiment 2 or 3 times. The tabulated KD values are from single, representative experiments, in which we collected each data point in triplicate, plotted F/F0 vs [ligand] for each quenching titration, and fitted the curves to a single site binding model using Grafit 6.012 (Erithacus Ltd, […], UK).

The target of another assay is KpnFepA2380. Nature of the assay: Fluorescence quenching binding to KpnFepA2380-FM sensor. To be noted: ferric complexes; Cys residue T255C, FM-labeled; NB = no binding; read-out: Affinity (KD) of sensor KpnFepA 2380. The arrangement: species or system Klebsiella pneumoniae. As for the experimental part: (§3) Fluorescence modifications. For modifications with maleimide fluorophores, we inoculated E. coli strains OKN3, OKN13, OKN359 or OKN1359, harboring plasmids that encoded a Cys mutant LGP, from frozen stocks into LB, grew them overnight and sub-cultured at 1% into iron-deficient MOPS minimal media, with shaking (200 rpm) at 37° C. for 10-12 h, until late exponential phase. After collecting the cells by centrifugation at 7500×g for 15 min, and washing with 50 mM NaHPO4, pH 6.7, we labeled the Cys-mutant LGP with 5 μM FM in 50 mM NaHPO4, pH 6.7 for 15 min at 37° C. FM. We terminated the labeling reactions with 100 μM β-mercaptoethanol. […] After electrophoresis, we first visualized the fluorescence labeling on a Typhoon 8600 Biomolecular Scanner (GE/Amersham), and then stained the gels with Coomassie blue R (153).
(§4) Fluorescence spectroscopic binding determinations. We observed fluorophore-labeled cells in an SLM AMINCO 8100 fluorescence spectrometer, upgraded with an OLIS operating system and software (OLIS SpectralWorks, OLIS Inc., Bogart, GA), to control its shutters, polarizers and data collection. We also utilized an OLIS Clarity fluorescence spectrometer for fluorescence assays. […] We performed each measurement in triplicate and calculated the mean value of F/F0 at each ligand concentration. […]

In the next assay the target is T2, PaeFpvA (Pseudomonas aeruginosa, UniProt P48632, T660C).
T2 construct: expressed in transfected cells; host or cells: E. coli OKN3/OKN13/OKN359/OKN1359 carrying a pITS23 derivative
The assay is described as follows: Fluorescence quenching binding to PaeFpvA-FM sensor. The following applies: secondary ligands. As to the method: as §3, §4

The subject of a further assay is CRE/ESKAPE pathogens. Nature of the assay: Decoy sensor measurements of metal complex uptake by bacteria. Format: cell-based. From the text:
Fluorescence spectroscopic uptake measurements. We employed FD sensors to monitor TonB-dependent uptake of various siderophores by bacterial pathogens. In the fluorescence spectroscopic uptake studies E. coli OKN13 (ΔtonB, ΔfepA) or OKN1359 (ΔtonB, Δfiu, ΔfepA, Δcir) were host strains for pITS23 derivatives carrying single Cys mutants of an LGP of interest. The FLGP were decoy sensors that monitored ferric siderophore uptake by test strains. For each assay we used 10^7 sensor cells (e.g., OKN13/pFepA-FM (53)) in a 2 mL quartz cuvette containing PBS+0.2% glucose at 37° C. After recording fluorescence intensity for 100 seconds, we added an iron complex (e.g., FeEnt) at a final concentration of ˜10 nM. After incubating the sample for 100 seconds, during which time fluorescence was quenched (e.g., ˜60% quenching for EcoFepA_A698C-FM), we added 0.5-2×10^7 cells of the test strain (E. coli MG1655, K. pneumoniae Kp52.145, A. baumannii 17978, P. aeruginosa PA01, E. cloacae) and monitored the time-course of fluorescence emissions at 520 nm for 15-40 minutes, with stirring.

The next assay concerns the target AbaPiuA (Acinetobacter baumannii, UniProt D0CAH3, S724C). The assay is described as follows: Fluorescence quenching binding to AbaPiuA-FM sensor. As to the method:
as §1, with “In the latter case, after thawing the labeled cells we pelleted them by centrifugation in a microfuge, washed them once with and re-suspended them in PBS containing 0.2% glucose. Lastly, for evaluation of protein expression or the extent of FM-labeling we solubilized aliquots of the cell suspensions with sample buffer, and subjected them to SDS-PAGE.” left out
as §2, with “We plotted 1−F/F0 vs [ligand] and analyzed the data by the 1-site binding model of Grafit 6.0.12 (Erithacus Ltd. West Sussex, UK), that fits data to a single site saturation curve, where the amount of ligand bound is plotted as a function of the amount free:” left out
(§5) Table 1 lists KD values from analysis of fluorescence quenching with ferric or apo (parenthetic values) siderophores or porphyrins. […]

Another assay deals with EcoFhuA (Escherichia coli, UniProt P06971). Nature of the assay: Fluorescence quenching binding to EcoFhuA-FM sensor. As to the method:
as §1
as §2, with “free: […]” for “free:”
as §5

For another assay, the target named is T3, EcoIutA (Escherichia coli, UniProt P14542, T573C).
T3 construct: expressed in transfected cells; host or cells: E. coli OKN3/OKN13/OKN359/OKN1359 carrying a pITS23 derivative
Nature of the assay: Fluorescence quenching binding to EcoIutA-FM sensor. To be noted: other ferric hydroxamates. As for the experimental part:
as §1
as §2, with “free: […]” for “free:”
as §5

Another assay addresses KpnFyuA. The assay is described as follows: Fluorescence quenching binding to KpnFyuA-FM sensor. More on the design: species or system Klebsiella pneumoniae. As to the method:
as §1, with “In the latter case, after thawing the labeled cells we pelleted them by centrifugation in a microfuge, washed them once with and re-suspended them in PBS containing 0.2% glucose. Lastly, for evaluation of protein expression or the extent of FM-labeling we solubilized aliquots of the cell suspensions with sample buffer, and subjected them to SDS-PAGE.” left out
as §2, with “We plotted 1−F/F0 vs [ligand] and analyzed the data by the 1-site binding model of Grafit 6.0.12 (Erithacus Ltd. West Sussex, UK), that fits data to a single site saturation curve, where the amount of ligand bound is plotted as a function of the amount free:” left out
as §5

Assay [1] has as its target T4, HsaSCN (human siderocalin) (Homo sapiens, UniProt P80188, Q148C).
T4 construct: adds a 6H-tag at either the N- or C-termini of the mature proteins; 6-His (N); made in house; host or cells: E. coli BL21 (pET28), IPTG-induced; purified on Talon Superflow
Nature of the assay: Fluorescence quenching binding to purified HsaSCN-FM sensor.

Read-outs that look alike come from different tables or passages of the source. *1 amine or outer side, *2 acyl side, *3 side chain or, on linkers, in order; H or OH if unused. Where a SMILES comes first, the peptide text is derived from it. Bridges are numbered along the chain shown (N, C = ends). [ ]: non-standard residue; d: D form. X1 = O=C([C@@H]1CCN=C2C(N[*:1])=Cc3cc(O)c(O)cc3N21)[*:2]; Orn(N5-OH,N5-Ac) = CC(=O)N(O)CCC[C@H](N)C(=O)O; X2 = O=CN(O)CCC[C@H](N[*:1])C(=O)[*:2]; Suc = O=C(CCC(=O)[*:2])[*:1]

The results in this text go back to patent publication US20250155433A1, “FLUORESCENT SENSORS FOR DETECTION OF SIDEROPHORES AND OTHER MOLECULES PRODUCED BY BACTERIAL PATHOGENS” (Kansas State University Research Foundation, priority 2021, published 2025).

One may read the Kd as the constant that tells how readily two partners part at equilibrium.

For `O=C(O)c1cccc(O)c1O.[Fe+3]` [FeDHB], on EcoFiu, the “Binding by EcoFiu” value is on record as “did not bind”. On KpnFepA2380, the Kd was 22 µM. Moreover, the “Binding by PaeFpvA” value at PaeFpvA is given as “weakly bound”.

Consider `O=C(N[C@H]1COC(=O)[C@@H](NC(=O)c2cccc([O-])c2[O-])COC(=O)[C@@H](NC(=O)c2cccc([O-])c2[O-])COC1=O)c1cccc([O-])c1[O-].[Fe+3]` [FeEnt, ferric enterobactin], for which the Transport rate in the assay with CRE/ESKAPE pathogens (iron deficient Gram (−) bacteria with maximally expressed chromosomal FepA) was approximately 50 pMol/10^9 cells/min. Moreover, on KpnFepA2380, the Kd amounted to 12.8 µM. In addition, the “Binding by PaeFpvA” value at PaeFpvA was “weakly bound”.

On to `O=C(N[C@H]1COC(=O)[C@@H](NC(=O)c2cc([C@@H]3O[C@H](CO)[C@@H](O)[C@H](O)[C@H]3O)cc(O)c2[O-])COC(=O)[C@@H](NC(=O)c2cc([C@@H]3O[C@H](CO)[C@@H](O)[C@H](O)[C@H]3O)cc(O)c2[O-])COC1=O)c1cccc(O)c1[O-].[Fe+3]` [FeGEnt], for which the “Binding by AbaPiuA” value at AbaPiuA is listed as “did not bind”.

For the compound `C[C@@H](O)[C@@H]1NC(=O)[C@H](CCCN([O-])C=O)NC(=O)[C@@H](NC(=O)[C@H](CCCN([O-])C=O)NC(=O)[C@@H](CO)NC(=O)[C@H](CCCNC(=N)N)NC(=O)[C@@H](CO)NC(=O)[C@@H]2CCN=C3C(NC(=O)CCC(=O)O)=Cc4cc(O)c([O-])cc4N32)CCCCNC(=O)[C@H]([C@@H](C)O)NC1=O.[Fe+3]` [FePvd] (Suc-[X1][dS]R[dS][X2]K[X2]TT; lactam 6-C), in the assay with CRE/ESKAPE pathogens (decoy sensors in TonB-deficient E. coli, 37° C., strains grown in iron-deficient MOPS), the “TonB-dependent uptake by test strains” value is “exclusive transport of FePvd by P. aeruginosa”.

Take `CC(=O)N(O)CCCCCNC(=O)CCC(=O)N(O)CCCCCNC(=O)CCC(=O)N(O)CCCCCN.[Fe+3]` [FxB]: the Kd turned out to be 100 µM at EcoFhuA (read-out: Affinity (KD) of sensor EcoFhuA, ferric complexes, Cys residue D396C, FM-labeled, NB = no binding); 277 µM on KpnFyuA (ferric complexes, Cys residue S631C, FM-labeled, NB = no binding, read-out: Affinity (KD) of sensor KpnFyuA); 0.175 µM in assay [1] (read-out: Affinity (KD) of sensor HsaSCN, ferric complexes and porphyrins, Cys residue Q128C, FM-labeled purified protein, NB = no binding); 0.18 µM in assay [1] (read-out: KD, HsaSCN-FM). The “Binding by IutA” value on EcoIutA is listed as “did not measurably bind”. Moreover, in the assay with KpnFyuA (secondary ligands), the “Binding by KpnFyuA” value was “weakly bound”.

On to `CC(C)(C1=N[C@@](C)(C(=O)O)CS1)[C@H](O)[C@@H]1CSC([C@H]2CSC(c3ccccc3O)=N2)N1` (stereo partly shown) [Ybt, yersiniabactin], for which, on KpnFyuA (apo (parenthetic value), S631C, read-out: Affinity (KD) of sensor KpnFyuA, apo siderophore), the Kd was determined as 0.12 µM.

For `CC(=O)N(O)CCC[C@@H]1NC(=O)CNC(=O)CNC(=O)CNC(=O)[C@H](CCCN(O)C(C)=O)NC(=O)[C@H](CCCN(O)C(C)=O)NC1=O` [apoFc] (cyclo(GGG[Orn(N5-OH,N5-Ac)][Orn(N5-OH,N5-Ac)][Orn(N5-OH,N5-Ac)])), the Kd on EcoFhuA (read-out: Affinity (KD) of sensor EcoFhuA, apo siderophore, apo (parenthetic value), D396C) amounted to 0.2 µM.
